# Activity calls are given as the source filed them. No rule for the calls is given here.
# System: CCRIS mutagenicity, Ames/micronucleus/aberration tests
# Assay: CCRIS mutagenicity studies
compound,measurement,setting,value
CCCN(CCC)C(=O)SCC,mutagenic call,"End Point: In vitro chromosomal aberrations, Test System: Chinese hamster ovary (CHO) cells, Metabolic Activation: None",inactive; negative
same,mutagenic call,"End Point: In vitro chromosomal aberrations, Test System: Chinese hamster ovary (CHO) cells, Metabolic Activation: Rat, Liver, S-9",inactive; negative
same,mutagenic call,"End Point: In vitro chromosomal aberrations, Test System: Mouse lymphoma cells, Strain/Indicator: L5178Y (tk+/tk-), Metabolic Activation: None",active; positive (structure and ploidy)
same,mutagenic call,"End Point: In vitro chromosomal aberrations, Test System: Mouse lymphoma cells, Strain/Indicator: L5178Y (tk+/tk-), Metabolic Activation: S-9",inactive; negative
same,mutagenic call,"Test System: AMES SALMONELLA TYPHIMURIUM, Strain/Indicator: TA97, Metabolic Activation: HAMSTER, LIVER, S-9, AROCLOR 1254 (10 OR 30%), Method: PREINCUBATION",inactive; negative
same,mutagenic call,"Test System: AMES SALMONELLA TYPHIMURIUM, Strain/Indicator: TA97, Metabolic Activation: NONE, Method: PREINCUBATION",inactive; negative
same,mutagenic call,"Test System: AMES SALMONELLA TYPHIMURIUM, Strain/Indicator: TA97, Metabolic Activation: RAT, LIVER, S-9, AROCLOR 1254 (10 OR 30%), Method: PREINCUBATION",inactive; negative
same,mutagenic call,"Test System: AMES SALMONELLA TYPHIMURIUM, Strain/Indicator: TA98, Metabolic Activation: HAMSTER, LIVER, S-9, AROCLOR 1254 (10%), Method: PREINCUBATION",inactive; negative
same,mutagenic call,"Test System: AMES SALMONELLA TYPHIMURIUM, Strain/Indicator: TA98, Metabolic Activation: HAMSTER, LIVER, S-9, AROCLOR 1254 (30%), Method: PREINCUBATION",inactive; negative
same,mutagenic call,"Test System: AMES SALMONELLA TYPHIMURIUM, Strain/Indicator: TA98, Metabolic Activation: NONE, Method: PREINCUBATION",inactive; negative
same,mutagenic call,"Test System: AMES SALMONELLA TYPHIMURIUM, Strain/Indicator: TA98, Metabolic Activation: RAT, LIVER, S-9, AROCLOR 1254 (10%), Method: PREINCUBATION",inactive; negative
same,mutagenic call,"Test System: AMES SALMONELLA TYPHIMURIUM, Strain/Indicator: TA98, Metabolic Activation: RAT, LIVER, S-9, AROCLOR 1254 (30%), Method: PREINCUBATION",inactive; negative
same,mutagenic call,"Test System: AMES SALMONELLA TYPHIMURIUM, Strain/Indicator: TA100, Metabolic Activation: HAMSTER, LIVER, S-9, AROCLOR 1254 (10%), Method: PREINCUBATION",inactive; negative
same,mutagenic call,"Test System: AMES SALMONELLA TYPHIMURIUM, Strain/Indicator: TA100, Metabolic Activation: HAMSTER, LIVER, S-9, AROCLOR 1254 (30%), Method: PREINCUBATION",inactive; negative
same,mutagenic call,"Test System: AMES SALMONELLA TYPHIMURIUM, Strain/Indicator: TA100, Metabolic Activation: NONE, Method: PREINCUBATION",inactive; negative
same,mutagenic call,"Test System: AMES SALMONELLA TYPHIMURIUM, Strain/Indicator: TA100, Metabolic Activation: RAT, LIVER, S-9, AROCLOR 1254 (10%), Method: PREINCUBATION",inactive; negative
same,mutagenic call,"Test System: AMES SALMONELLA TYPHIMURIUM, Strain/Indicator: TA100, Metabolic Activation: RAT, LIVER, S-9, AROCLOR 1254 (30%), Method: PREINCUBATION",inactive; negative
same,mutagenic call,"Test System: AMES SALMONELLA TYPHIMURIUM, Strain/Indicator: TA1535, Metabolic Activation: HAMSTER, LIVER, S-9, AROCLOR 1254 (10 OR 30%), Method: PREINCUBATION",inactive; negative
same,mutagenic call,"Test System: AMES SALMONELLA TYPHIMURIUM, Strain/Indicator: TA1535, Metabolic Activation: NONE, Method: PREINCUBATION",inactive; negative
same,mutagenic call,"Test System: AMES SALMONELLA TYPHIMURIUM, Strain/Indicator: TA1535, Metabolic Activation: RAT, LIVER, S-9, AROCLOR 1254 (10 OR 30%), Method: PREINCUBATION",inactive; negative
same,mutagenic call,"Test System: AMES SALMONELLA TYPHIMURIUM, Strain/Indicator: TA1537, Metabolic Activation: HAMSTER, LIVER, S-9, AROCLOR 1254 (10 OR 30%), Method: PREINCUBATION",inactive; negative
same,mutagenic call,"Test System: AMES SALMONELLA TYPHIMURIUM, Strain/Indicator: TA1537, Metabolic Activation: NONE, Method: PREINCUBATION",inactive; negative
same,mutagenic call,"Test System: AMES SALMONELLA TYPHIMURIUM, Strain/Indicator: TA1537, Metabolic Activation: RAT, LIVER, S-9, AROCLOR 1254 (10 OR 30%), Method: PREINCUBATION",inactive; negative
same,mutagenic call,"Test System: Ames Salmonella typhimurium, Strain/Indicator: TA98, Metabolic Activation: None, Method: Plate incorporation amd preincubation (2 trials)",inactive; negative. (cytotoxicity at doses of 1000 ug/plate and above.)
same,mutagenic call,"Test System: Ames Salmonella typhimurium, Strain/Indicator: TA98, Metabolic Activation: Rat, Liver, S-9, Aroclor, Method: Plate incorporation",inactive; negative. (cytotoxicity at doses of 1000 ug/plate and above.)
same,mutagenic call,"Test System: Ames Salmonella typhimurium, Strain/Indicator: TA100, Metabolic Activation: None, Method: Plate incorporation amd preincubation (2 trials)",inactive; negative. (cytotoxicity at doses of 1000 ug/plate and above.)
same,mutagenic call,"Test System: Ames Salmonella typhimurium, Strain/Indicator: TA100, Metabolic Activation: Rat, Liver, S-9, Aroclor, Method: Plate incorporation",inactive; negative. (cytotoxicity at doses of 1000 ug/plate and above.)
same,mutagenic call,"Test System: Ames Salmonella typhimurium, Strain/Indicator: TA1535, Metabolic Activation: None, Method: Plate incorporation amd preincubation (2 trials)",inactive; negative. (cytotoxicity at doses of 1000 ug/plate and above.)
same,mutagenic call,"Test System: Ames Salmonella typhimurium, Strain/Indicator: TA1535, Metabolic Activation: Rat, Liver, S-9, Aroclor, Method: Plate incorporation",inactive; negative. (cytotoxicity at doses of 1000 ug/plate and above.)
same,mutagenic call,"Test System: Ames Salmonella typhimurium, Strain/Indicator: TA1537, Metabolic Activation: None, Method: Plate incorporation amd preincubation (2 trials)",inactive; negative. (cytotoxicity at doses of 1000 ug/plate and above.)
same,mutagenic call,"Test System: Ames Salmonella typhimurium, Strain/Indicator: TA1537, Metabolic Activation: Rat, Liver, S-9, Aroclor, Method: Plate incorporation",inactive; negative. (cytotoxicity at doses of 1000 ug/plate and above.)
same,mutagenic call,"Test System: E. coli, Strain/Indicator: WP2P/WP2P uvrA, Metabolic Activation: None, Method: Plate incorporation amd preincubation (2 trials)",inactive; negative. (cytotoxicity at doses of 1000 ug/plate and above.)
same,mutagenic call,"Test System: E. coli, Strain/Indicator: WP2P/WP2P uvrA, Metabolic Activation: Rat, Liver, S-9, Aroclor, Method: Plate incorporation",inactive; negative. (cytotoxicity at doses of 1000 ug/plate and above.)
same,mutagenic call,"Test System: Mouse lymphoma cells, Strain/Indicator: L5178Y (tk+/tk-), Metabolic Activation: None, Method: Not given by California Department of Pesticides Regulation",active; positive
same,mutagenic call,"Test System: Mouse lymphoma cells, Strain/Indicator: L5178Y (tk+/tk-), Metabolic Activation: Rat, Liver, S-9, Method: Not given by California Department of Pesticides Regulation",active; positive
same,mutagenic call,"Test System: UDS primary rat hepatocytes, Strain/Indicator: Thymidine incorporation, Method: Liquid scintillation counting",inactive; negative

# Reference: PubChem BioAssay AID1259407 (Chemical Carcinogenesis Research Information System (CCRIS), 2018)
